Data: ChEMBL document CHEMBL5236647, “The discovery of 3,3-dimethyl-1,2,3,4-tetrahydroquinoxaline-1-carboxamides as AMPD2 inhibitors with a novel mechanism of action” (Bioorg Med Chem Lett, 2023)
The source made the active and inactive calls. The rule behind the calls is not given here.

Tests used:
[1] = target: T1, AMP deaminase 2 (Homo sapiens, UniProt Q01433); assay: Inhibition of recombinant human AMPD2 using AMP as substrate preincubated for 30 mins followed by substrate addition and measured after 30 mins by spectrophotometric analysis
T1 sequence (Q01433 whole entry): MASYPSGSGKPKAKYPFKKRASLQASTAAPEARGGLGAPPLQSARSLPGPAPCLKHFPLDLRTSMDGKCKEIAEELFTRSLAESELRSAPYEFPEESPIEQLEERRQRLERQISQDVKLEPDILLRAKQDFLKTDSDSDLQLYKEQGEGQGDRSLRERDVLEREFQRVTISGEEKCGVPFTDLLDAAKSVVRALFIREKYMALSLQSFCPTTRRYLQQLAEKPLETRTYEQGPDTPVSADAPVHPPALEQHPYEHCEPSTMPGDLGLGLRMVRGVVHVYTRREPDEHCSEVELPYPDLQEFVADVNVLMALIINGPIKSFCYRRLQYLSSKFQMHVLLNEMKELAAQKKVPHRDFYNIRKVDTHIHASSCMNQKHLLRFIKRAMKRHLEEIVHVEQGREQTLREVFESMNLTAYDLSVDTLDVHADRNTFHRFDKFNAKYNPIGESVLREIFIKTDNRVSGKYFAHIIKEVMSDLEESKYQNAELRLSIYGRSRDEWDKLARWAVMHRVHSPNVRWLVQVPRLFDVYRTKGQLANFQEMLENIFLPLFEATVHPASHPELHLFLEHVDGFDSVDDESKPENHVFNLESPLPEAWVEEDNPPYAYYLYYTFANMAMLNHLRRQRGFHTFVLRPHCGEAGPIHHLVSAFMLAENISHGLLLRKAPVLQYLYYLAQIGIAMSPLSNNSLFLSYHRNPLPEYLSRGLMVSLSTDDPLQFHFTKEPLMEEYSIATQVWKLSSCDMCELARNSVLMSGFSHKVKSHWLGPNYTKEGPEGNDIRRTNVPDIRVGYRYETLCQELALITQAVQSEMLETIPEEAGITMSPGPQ

[2] = target: T1, AMP deaminase 2; assay: Inhibition of recombinant human AMPD2 using AMP as substrate incubated for 30 mins by spectrophotometric analysis
[3] = target: T2, AMP deaminase 2 (Homo sapiens) (UniProt Q01433); assay: Selectivity ratio of IC50 for recombinant human AMPD2 using AMP as substrate incubated for 30 mins by spectrophotometric analysis to IC50 for recombinant human AMPD2 using AMP as substrate preincubated for 30 mins followed by substrate addition and measured after 30 mins by spectrophotometric analysis
T2 sequence (whole entry): T1 sequence (Q01433 whole entry)

[4] = Metabolic stability in mouse liver microsomes assessed as compound remaining at 5 uM after 1 hr; type: ADME, Microsome; details: read-out: Stability
[5] = Ex vivo inhibition of AMPD2 in C57BL/6J mouse liver at 30 mg/kg, po administered for 1 hr; type: functional
[6] = target: T3, AMP deaminase 2 (Mus musculus, UniProt Q9DBT5); assay: Inhibition of recombinant mouse AMPD2 using AMP as substrate preincubated for 30 mins followed by substrate addition and measured after 30 mins by spectrophotometric analysis
T3 sequence (Q9DBT5 whole entry): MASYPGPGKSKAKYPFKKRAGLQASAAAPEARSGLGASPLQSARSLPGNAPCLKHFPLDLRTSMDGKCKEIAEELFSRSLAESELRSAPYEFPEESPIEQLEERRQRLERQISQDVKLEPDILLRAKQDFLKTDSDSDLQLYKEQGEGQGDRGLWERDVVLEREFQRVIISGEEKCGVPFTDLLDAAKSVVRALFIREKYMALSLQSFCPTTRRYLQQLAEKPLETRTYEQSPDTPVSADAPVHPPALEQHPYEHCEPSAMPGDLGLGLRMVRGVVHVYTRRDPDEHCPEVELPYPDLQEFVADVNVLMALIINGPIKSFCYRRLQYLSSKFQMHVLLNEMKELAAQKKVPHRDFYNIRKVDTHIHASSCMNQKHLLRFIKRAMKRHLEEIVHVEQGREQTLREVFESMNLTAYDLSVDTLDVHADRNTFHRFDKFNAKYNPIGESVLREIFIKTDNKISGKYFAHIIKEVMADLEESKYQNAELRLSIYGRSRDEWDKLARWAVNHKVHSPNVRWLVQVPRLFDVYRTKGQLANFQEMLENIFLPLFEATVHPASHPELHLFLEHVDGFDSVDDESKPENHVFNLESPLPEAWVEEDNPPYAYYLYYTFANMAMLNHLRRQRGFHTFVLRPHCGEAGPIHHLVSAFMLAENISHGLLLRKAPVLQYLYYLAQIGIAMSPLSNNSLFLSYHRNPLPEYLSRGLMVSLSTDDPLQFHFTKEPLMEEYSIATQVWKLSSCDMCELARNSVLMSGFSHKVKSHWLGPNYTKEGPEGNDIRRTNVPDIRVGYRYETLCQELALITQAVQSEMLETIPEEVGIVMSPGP

[7] = target: T4, AMP deaminase 1 (Homo sapiens) (UniProt P23109); assay: Inhibition of AMPD1 (unknown origin) at 100 uM
T4 sequence (whole entry): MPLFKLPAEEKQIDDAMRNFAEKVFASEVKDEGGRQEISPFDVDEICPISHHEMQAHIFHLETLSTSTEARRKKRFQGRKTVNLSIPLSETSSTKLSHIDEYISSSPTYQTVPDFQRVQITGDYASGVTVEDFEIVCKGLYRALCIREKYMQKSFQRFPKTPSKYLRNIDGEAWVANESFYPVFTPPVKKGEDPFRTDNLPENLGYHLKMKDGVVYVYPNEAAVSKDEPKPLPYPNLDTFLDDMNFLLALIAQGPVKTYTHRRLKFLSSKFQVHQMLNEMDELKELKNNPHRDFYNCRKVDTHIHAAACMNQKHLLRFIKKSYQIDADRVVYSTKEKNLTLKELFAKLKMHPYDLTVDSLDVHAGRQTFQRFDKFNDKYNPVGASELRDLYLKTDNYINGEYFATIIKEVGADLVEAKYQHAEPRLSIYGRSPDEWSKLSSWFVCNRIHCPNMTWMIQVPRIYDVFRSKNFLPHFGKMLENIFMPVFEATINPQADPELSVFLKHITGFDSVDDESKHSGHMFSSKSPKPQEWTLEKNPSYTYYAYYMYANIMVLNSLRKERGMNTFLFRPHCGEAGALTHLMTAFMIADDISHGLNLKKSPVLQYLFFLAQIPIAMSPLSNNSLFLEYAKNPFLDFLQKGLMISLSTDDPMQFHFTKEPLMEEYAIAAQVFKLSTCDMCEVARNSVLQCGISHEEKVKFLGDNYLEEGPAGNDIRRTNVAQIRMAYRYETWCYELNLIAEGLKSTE

| IC50 [1] [nM] | IC50 [2] [nM] | Ratio IC50 [3] | remaining at 1 h, 5 µM [4] [%] | IC50 [6] [nM] | inhibition [7] | SMILES | inhibition in vivo at 30 mg/kg [5] [%] |
| --- | --- | --- | --- | --- | --- | --- | --- |
| 500 | > 3000 |  |  |  |  | CC1(C)CN(C(N)=O)c2ccccc2N1Cc1cccc(CCc2ccccc2)c1 |  |
| 240 | 1900 | 8.2 |  |  |  | CC1(C)CN(C(N)=O)c2cc(F)ccc2N1Cc1ccccc1 |  |
| 110 | 2600 | 25 |  |  |  | CC1(C)CN(C(N)=O)c2ccccc2N1Cc1ccc(COc2ccccc2)cc1 |  |
|  | > 100000 |  |  |  |  | CC1(C)CN(S(C)(=O)=O)c2ccccc2N1Cc1ccccc1 |  |
| 60 | 1800 | 33 | 18 | 40 |  | CC1(C)CN(C(N)=O)c2ccc(F)c(F)c2N1Cc1ccccc1 | 71 |
| 170 |  |  | 34 |  |  | CC(=O)Nc1ccc(OCc2ccc(CN3c4c(ccc(F)c4F)N(C(N)=O)CC3(C)C)cc2)cc1 | 19 |
| 260 | 4100 | 16 |  |  |  | CC1(C)CN(C(N)=O)c2cc(F)cc(F)c2N1Cc1ccccc1 |  |
|  | > 100000 |  |  |  |  | CCC(=O)N1CC(C)(C)N(Cc2ccccc2)c2ccccc21 |  |
| 300 | 2300 | 7.5 |  |  |  | Cc1cccc(CN2c3ccccc3N(C(N)=O)CC2(C)C)c1 |  |
| 500 | 4000 | 8 |  |  |  | CC1(C)CN(C(N)=O)c2c(F)cccc2N1Cc1ccccc1 |  |
| 270 | 4100 | 15 |  |  |  | CC1(C)CN(C(N)=O)c2ccccc2N1Cc1ccc(OC(F)(F)F)cc1 |  |
| 200 |  |  | 56 |  |  | CC1(C)CN(C(N)=O)c2ccc(F)c(F)c2N1Cc1ccc(COc2ccc(C(N)=O)cc2)cc1 | 58 |
| 2200 | 5000 | 2.3 |  |  |  | Cc1cccc2c1N(Cc1ccccc1)C(C)(C)CN2C(N)=O |  |
| 30 | 1100 | 36 |  |  |  | CC1(C)CN(C(N)=O)c2cccc(F)c2N1Cc1ccccc1 |  |
| 100 |  |  | 46 | 110 |  | CC1(C)CN(C(N)=O)c2ccc(F)c(F)c2N1Cc1ccc(COc2ccc(CO)cc2)cc1 | 83 |
| 740 | 3100 | 4.2 |  |  |  | CC1(C)CN(C(N)=O)c2ccccc2N1Cc1ccc(OCc2ccccc2)cc1 |  |
| 1100 | 5100 | 4.6 |  |  |  | CC1(C)CN(C(N)=O)c2ccc(F)cc2N1Cc1ccccc1 |  |
| 41000 | 57000 | 1.4 |  |  |  | CC(=O)N1CC(C)(C)N(Cc2ccccc2)c2ccccc21 |  |
| 140 | 1300 | 9.2 |  |  |  | CC1(C)CN(C(N)=O)c2ccccc2N1Cc1cccc(OC(F)(F)F)c1 |  |
| 190 | 1700 | 8.9 |  |  |  | CC1(C)CN(C(N)=O)c2ccccc2N1Cc1ccc(Cl)cc1 |  |
| 410 | 6000 | 15 |  |  |  | CC1(C)CN(C(N)=O)c2ccccc2N1Cc1ccc(CCc2ccccc2)cc1 |  |
| 270 | 3000 | 11 |  |  | inactive | CC1(C)CN(C(N)=O)c2ccccc2N1Cc1ccccc1 |  |
| 130 |  |  | 51 |  |  | CC1(C)CN(C(N)=O)c2ccc(F)c(F)c2N1Cc1ccc(COc2ccccc2)cc1 | 24 |
| 12000 | 21000 | 1.8 |  |  |  | CC1(C)CN(C(N)=O)c2ccccc2N1Cc1ccccc1Cl |  |
| 180 | 1700 | 9.2 |  |  |  | CC1(C)CN(C(N)=O)c2cccc(Cl)c2N1Cc1ccccc1 |  |
| 170 | 1400 | 8.2 |  |  |  | Cc1ccc(CN2c3ccccc3N(C(N)=O)CC2(C)C)cc1 |  |
|  | > 100000 |  |  |  |  | CNC(=O)N1CC(C)(C)N(Cc2ccccc2)c2ccccc21 |  |
